Data: patent US7452688B2, “Transformed cell with enhanced sensitivity to antifungal compound and use thereof” (Sumitomo Chemical Company, Limited, priority 2002, dated 2008)

Columns and labels:
Type in all cases: cell-based, Saccharomyces cerevisiae
[1] = tested on: transformed budding yeast AH22-FoOS1; experiment: Antifungal compound sensitivity test, transformed budding yeast AH22-FoOS1 (Example 13); settings: 30° C. 26.5 hours, relative value in percentage
Experimental: The transformed budding yeast AH22-FoOS1 prepared in Example 12 was cultured while shaking at 30° C. for 18 hours in a Glu-Leu medium. As a control, the AH22 strain was similarly cultured while shaking at 30° C. for 18 hours in a Glu medium. The absorbance at 600 nm of each grown transformed budding yeast in a cell suspension was measured, and cell suspension diluted with sterilized distilled water to the absorbance of 0.1 was prepared. Further, a cell suspension in which the aforementioned cell suspension of the transformed budding yeast AH22-FoOS1 was diluted 50-fold with a Glu-Leu medium, and a cell suspension in which the aforementioned cell suspension of the AH22 strain was diluted 50-fold with a Glu medium were prepared.
A solution in which each of Compounds (1) to (3) was dissolved in dimethylsulfoxide (DMSO) to the concentration of 600 ppm, a solution in which each of Compounds (4) and (5) was dissolved in dimethylsulfoxide (DMSO) to the concentration of 2000 ppm, and a solution in which Compounds (6) and (7) was dissolved in dimethylsulfoxide (DMSO) to the concentration of 20 ppm were prepared, and two microplates were prepared in which each 1.0 μL per well of the Compound solution and DMSO as a control were dispensed. In one microplate among them, each. 100 μL of cell suspensions of the transformed budding yeast AH22-FoOS1 which had been prepared by dilution as described above was dispensed, and cultured by allowing to stand at 30° C. for 26.5 hours. In another microplate, each 100 μL of cell suspensions of the control yeast AH22 strain which had been prepared by dilution as described above was dispensed, and cultured by allowing to stand at 30° C. for 24.5 hours. After culturing, the absorbance at 600 nm of each well was measured with a microplate reader.
(§1) A degree of growth of the transformed budding yeast is expressed as a relative value in percentage, letting the absorbance at 600 nm at the concentration of the Compound of 0 ppm to be 100. It was confirmed that an inhibiting degree of growth of the transformed budding yeast TM182-FoOS1 by each test substance was grater than an inhibiting degree of growth of the transformed budding yeast AH22-FoOS1 by each test substance, and the transformed budding yeast TM182-FoOS1 was a transformed cell with the enhanced sensitivity to an antifungal compound as compared with the transformed budding yeast AH22-FoOS1.

[2] = tested on: transformed budding yeast TM182-FoOS1; experiment: Antifungal compound sensitivity test of transformed budding yeast TM182-FoOS1 (Example 13); settings: for Degree of growth of budding yeast TM182-FoOS1 Gal-Ura-Leu medium: control medium, 30° C. 51 hours; for Degree of growth of budding yeast TM182-FoOS1 Gul-Ura-Leu medium: 30° C. 25 hours
Experimental: Similarly, the transformed budding yeast TM182-FoOS1 prepared in Example 12 was cultured at 30° C. for 18 hours in a Glu-Ura-Leu medium. The absorbance at 600 nm of the grown transformed budding yeast in a cell suspension was measured, and a cell suspension diluted with sterilized distilled water to the absorbance of 0.1 was prepared. Further, a cell suspension in which the transformed budding yeast TM182-FoOS1 was diluted 50-fold with a Glu-Ura-Leu medium and, as a control, a cell suspension in which the yeast was diluted 50-fold with a Gal-Ura-Leu medium were prepared.
(§2) A solution in which each of Compounds (1) to (3) was dissolved in dimethylsulfoxide (DMSO) to the concentration of 600 ppm, a solution in which each of Compounds (0.4) and (5) was dissolved in dimethylsulfoxide (DMSO) to the concentration of 2000 ppm, and a solution in which each of Compounds (6) and (7) was dissolved in dimethylsulfoxide (DMSO) to the concentration of 20 ppm were prepared, and two microplates were prepared in which each 2.0 μL per well of the Compound-DMSO solution and DMSO as a control were dispensed into 2 wells. In one microplate among them, each 100 μL of cell suspensions of the transformed budding yeast TM182-FoOS1 which had been prepared by dilution with a Glu-Ura-Leu medium as described above was dispensed, and cultured by allowing to stand at 30° C. for 25 hours. In another microplate, as described above, as a control, each 100 μL of cell suspensions of the transformed budding yeast TM182-FoOS1 which had been prepared by dilution with a Gal-Ura-Leu medium was dispensed, and cultured at 30° C. for 51 hours. After culturing, the absorbance at 600 nm of each well was measured with a microplate reader.
as §1

[3] = tested on: transformed budding yeast TM182-StOS1; experiment: Antifungal compound sensitivity test of transformed budding yeast TM182-StOS1 (Example 16); settings: for Degree of growth of budding yeast TM182-StOS1 Gal-Ura-Leu medium: control medium, 30° C. 49.5 hours; for Degree of growth of budding yeast TM182-StOS1 Gul-Ura-Leu medium: 30° C. 26.5 hours
Experimental: Similarly, the transformed budding yeast TM182-StOS1 prepared in Example 15 was cultured at 30° C. for 18 hours in a Glu-Ura-Leu medium. The absorbance at 600 nm of the grown transformed budding yeast in a cell suspension was measured, and a cell suspension diluted with sterilized distilled water to the absorbance of 0.1 was prepared. Further, a cell suspension in which the transformed budding yeast TM182-StOS1 was diluted 50-fold with a Glu-Ura-Leu medium and, as a control, a cell suspension in which the yeast was diluted 50-fold with a Gal-Ura-Leu medium were prepared.
as §2, with “of 6” for “of 600”, “Compounds (4)” for “Compounds (0.4)”, “yeast TM182-StOS1” for “yeast TM182-FoOS1”, “for 26.5” for “for 25”, “for 49.5” for “for 51”
as §1, with “TM182-StOS1” for “TM182-FoOS1”, “AH22-StOS1” for “AH22-FoOS1”, “AH22-StOS1.” for “AH22-FoOS1.”

CC12CC1(C)C(=O)N(c1cc(Cl)cc(Cl)c1)C2=O (centres unmarked) [Compound (1), Procymidone] was tested, and the “Degree of growth of budding yeast AH22-FoOS1 Glu-Leu medium” value ([1]; final concentration 6 ppm) was 81%, the “Degree of growth of budding yeast TM182-FoOS1 Gal-Ura-Leu medium” value ([2]; final concentration 6 ppm) was 116% and the “Degree of growth of budding yeast TM182-FoOS1 Gul-Ura-Leu medium” value ([2]; final concentration 6 ppm) was 26%. For the same compound, the “Degree of growth of budding yeast TM182-StOS1 Gal-Ura-Leu medium” value ([3]; final concentration 0.6 ppm) was 101% and the “Degree of growth of budding yeast TM182-StOS1 Gul-Ura-Leu medium” value ([3]; final concentration 0.6 ppm) was 67%.
For CC(C)NC(=O)N1CC(=O)N(c2cc(Cl)cc(Cl)c2)C1=O [Compound (2), Iprodione], the “Degree of growth of budding yeast AH22-FoOS1 Glu-Leu medium” value ([1]; final concentration 6 ppm) was 91%, the “Degree of growth of budding yeast TM182-FoOS1 Gal-Ura-Leu medium” value ([2]; final concentration 6 ppm) was 87% and the “Degree of growth of budding yeast TM182-FoOS1 Gul-Ura-Leu medium” value ([2]; final concentration 6 ppm) was 55%. For the same compound, the “Degree of growth of budding yeast TM182-StOS1 Gal-Ura-Leu medium” value ([3]; final concentration 0.6 ppm) was 97% and the “Degree of growth of budding yeast TM182-StOS1 Gul-Ura-Leu medium” value ([3]; final concentration 0.6 ppm) was 23%.
In the case of C=CC1(C)OC(=O)N(c2cc(Cl)cc(Cl)c2)C1=O (centres unmarked) [Compound (3), Vinclozolin], the “Degree of growth of budding yeast AH22-FoOS1 Glu-Leu medium” value ([1]; final concentration 6 ppm) is reported as 86%, the “Degree of growth of budding yeast TM182-FoOS1 Gal-Ura-Leu medium” value ([2]; final concentration 6 ppm) is reported as 99% and the “Degree of growth of budding yeast TM182-FoOS1 Gul-Ura-Leu medium” value ([2]; final concentration 6 ppm) is reported as 22%. For the same compound, the “Degree of growth of budding yeast TM182-StOS1 Gal-Ura-Leu medium” value ([3]; final concentration 0.6 ppm) was 94% and the “Degree of growth of budding yeast TM182-StOS1 Gul-Ura-Leu medium” value ([3]; final concentration 0.6 ppm) was 19%.
O=[N+]([O-])c1c(Cl)c(Cl)c(Cl)c(Cl)c1Cl [Compound (4), Quintozene] was tested, and the “Degree of growth of budding yeast AH22-FoOS1 Glu-Leu medium” value ([1]; final concentration 20 ppm) was 90%, the “Degree of growth of budding yeast TM182-FoOS1 Gal-Ura-Leu medium” value ([2]; final concentration 20 ppm) was 104% and the “Degree of growth of budding yeast TM182-FoOS1 Gul-Ura-Leu medium” value ([2]; final concentration 20 ppm) was 20%. The “Degree of growth of budding yeast TM182-StOS1 Gal-Ura-Leu medium” value ([3]; final concentration 20 ppm) was 99% and the “Degree of growth of budding yeast TM182-StOS1 Gul-Ura-Leu medium” value ([3]; final concentration 20 ppm) was 7%.
In the case of COP(=S)(OC)Oc1c(Cl)cc(C)cc1Cl [Compound (5), Tolclofos-methyl], the “Degree of growth of budding yeast AH22-FoOS1 Glu-Leu medium” value ([1]; final concentration 20 ppm) is reported as 71%, the “Degree of growth of budding yeast TM182-FoOS1 Gal-Ura-Leu medium” value ([2]; final concentration 20 ppm) is reported as 80% and the “Degree of growth of budding yeast TM182-FoOS1 Gul-Ura-Leu medium” value ([2]; final concentration 20 ppm) is reported as 57%. The “Degree of growth of budding yeast TM182-StOS1 Gal-Ura-Leu medium” value ([3]; final concentration 20 ppm) was 74% and the “Degree of growth of budding yeast TM182-StOS1 Gul-Ura-Leu medium” value ([3]; final concentration 20 ppm) was 6%.
With N#Cc1c[nH]cc1-c1cccc2c1OC(F)(F)O2 [Compound (6), Fludioxonil] the “Degree of growth of budding yeast AH22-FoOS1 Glu-Leu medium” value ([1]; final concentration 0.2 ppm) was 69%, the “Degree of growth of budding yeast TM182-FoOS1 Gal-Ura-Leu medium” value ([2]; final concentration 0.2 ppm) was 99% and the “Degree of growth of budding yeast TM182-FoOS1 Gul-Ura-Leu medium” value ([2]; final concentration 0.2 ppm) was 7%. For the same compound, the “Degree of growth of budding yeast TM182-StOS1 Gal-Ura-Leu medium” value ([3]; final concentration 0.2 ppm) was 97% and the “Degree of growth of budding yeast TM182-StOS1 Gul-Ura-Leu medium” value ([3]; final concentration 0.2 ppm) was 6%.
In the case of N#Cc1c[nH]cc1-c1cccc(Cl)c1Cl [Compound (7), Fenpiclonil], the “Degree of growth of budding yeast AH22-FoOS1 Glu-Leu medium” value ([1]; final concentration 0.2 ppm) is reported as 88%, the “Degree of growth of budding yeast TM182-FoOS1 Gal-Ura-Leu medium” value ([2]; final concentration 0.2 ppm) is reported as 89% and the “Degree of growth of budding yeast TM182-FoOS1 Gul-Ura-Leu medium” value ([2]; final concentration 0.2 ppm) is reported as 21%. The “Degree of growth of budding yeast TM182-StOS1 Gal-Ura-Leu medium” value ([3]; final concentration 0.2 ppm) was 91% and the “Degree of growth of budding yeast TM182-StOS1 Gul-Ura-Leu medium” value ([3]; final concentration 0.2 ppm) was 9%.
